Data reported in patent US20050203013A1, “Methods for inhibiting vascular permeability” (priority 2002, published 2005).

Tests used:
skin vessel permeability [1] = assay: Miles vascular permeability assay (Example 3); format: in vivo, SCID mice
Protocol: SCID mice were injected subcutaneously (s.c.) with TNP-470 or HPMA copolymer-TNP-470 (30 mg/Kg TNP-equiv.) for three days, with Y27632 (50 nM s.c.) for 11 days, with angiostatin (200 mg/kg/day s.c.) for five days, or with saline (250 μl s.c.) for 5 days (n=12) prior to performing the Miles assay ([…] et al., 1996; Miles and Miles, 1952; Streit et al., 2000). Briefly, Evan's blue dye (100 μl of a 1% solution in 0.9% NaCl) was injected intravenously (i.v.) into mice. After 10 minutes, 50 μl of human VEGF165 (1 ng/μl), PAF (100 μM), CNF-1 (100 ng), histamine (1.2 μg/ml) or PBS (50 ul) were injected intradermally into the pre-shaved back skin. After 20 minutes, the animals were euthanized and an area of skin that included the blue spot resulting from leakage of the dye was removed. Evan's blue dye was extracted from the skin by incubation with formamide for 5 days at room temperature, and the absorbance of extracted dye was measured at 620 nm using a spectrophotometer. The unpaired Student t test was used for statistical analysis.

[2] = tested on: U87 glioblastoma tumor blood vessel permeability; assay: Miles assay on tumor-bearing mice (Example 3), U87; parameters: species or system SCID mice; conditions: mouse, in vivo
Protocol: Female SCID mice ( 8 weeks, 20 g) were inoculated s.c. with 5×10^6 viable U87 glioblastoma cells or viable A2058 human melanoma cells or BXPC3 pancreas adenocarcinoma cells. Female nu/nu mice were inoculated with MCF-7 or MDA-MB-231 breast carcinoma cells in the mammary fat pad. C57B1/6J were inoculated with LLC. […] blue dye was then injected i.v. and extravasation of dye assessed as above. Also, blood was withdrawn to measure VPF/VEGF levels in plasma and in tumors (n=5 from each group). Tumors (n=5 per group) were dissected, weighed and cut in half. Half of the tumor was placed in formalin and half was analyzed for VPF/VEGF protein by ELISA (see below). Formalin fixed tumors were processed for sectioning and staining with H & E, CD31, smooth muscle actin (SMA) and proliferating cell nuclear antigen (PCNA) according to the manufacturers' instructions.

[3] = tested on: VEGF induced vessel permeability; assay: Miles assay (Example 2), VEGF165 challenge; format: in vivo, mice
Protocol: One of the problems with angiogenesis-dependent diseases is increased vessel permeability (due to high levels of VPF) which results in edema and loss of proteins. A decrease in vessel permeability is beneficial in those diseases. […] Briefly, a dye, Evans Blue (1% in PBS), was injected i.v. to anesthesized mice. After 10 min, human recombinant VEGF165 (50 ng/50 μl) was injected intradermally into the back skin. Leakage of protein-bound dye was detected as blue spots on the underside of the back skin surrounding the injection site. After 20 min mice were euthanized. Then, the skin was excised, left in formamide for 5 days to be extracted and the solution read at 620 nm. Putative angiogenesis inhibitors such as free and conjugated TNP-470 were injected daily 3 days (30 mg/kg/day) prior to the VEGF challenge. The same was repeated on tumor-bearing mice to evaluate the effect of angiogenesis inhibitors on tumor vessel permeability.

skin vessel permeability [4] = assay: Duration of exposure: Alzet pump endostatin, skin vessel permeability; format: in vivo, mice (SCID)
Protocol: In order to test if continuous exposure to the antiangiogenic factor (endostatin) is required to repress blood vessel permeability, mice (SCID) were anesthetized and “Alzet” pumps loaded with the antiangiogenic factor or saline were implanted intraperitoneally. The pumps release 1 μl the antiangiogenic factor per hour. Skin vessel permeability using Evans Blue dye was performed as described above. Saline and the antiangiogenic factor treated mice were examined 2, 3 and 4 days after pump implantation, as described above (FIG. 3). […] In both groups, PAF injection induced higher vessel permeability than saline injection. […] However, in both groups PAF injection induced higher vessel permeability than saline injection. […] Since the tumor vessels are continuously permeabilized and plasma proteins contained within the tumor support its vascularization the anti-permeability effect of the antiangiogenic factor offers a possible mechanism for its anti-tumor activity.

[5] = tested on: skin capillary permeability; assay: Evans Blue skin permeability assay, intradermal PAF, endostatin-treated mice; format: in vivo; conditions: Nude mice
Protocol: (§1) The antiangiogenic factor (endostatin) was injected intraperitoneally to FVB/NJ mice for 4 days. Immediately after the last injection, mice were anasthesized and received intravenous injection of 100 μl Evans Blue dye (1% in PBS). Subsequently, different amounts of VEGF165, VEGF121 or saline were injected intradermaly. After 20 minutes, mice were sacrificed and skin flap from the back was removed and photographed. Skin samples from the injection sites were excised and incubated in formamide for 5 days in order to extract the dye and O.D. was measured at 620 nm. […] Quantitative analysis of Evans Blue dye extravasation (FIG. 1) confirmed the lower skin capillary permeability of the antiangiogenic factor-treated mice and indicated the weak permeability-inducing effect of VEGF in these mice.
In order to test if the effects of the antiangiogenic factor (endostatin) on vascular permeability is VEGF-specific, we have tested the effects of intradermal injection of platelet-activating factor (PAF) in Nude mice that were previously injected with the antiangiogenic factor and in control mice, as described above. […] Quantitative analysis of Evans Blue dye extravasation (FIG. 2) confirmed the lower skin capillary permeability of the antiangiogenic factor-treated mice compared with control and the lack of PAF-induced hyperpermeability in these mice. […]

[6] = tested on: histamine-induced local edema; assay: Histamine-induced wheal and flare test; format: in vivo; conditions: humans receiving the factor
Protocol: Antiangiogenic treatment has entered into clinical trials recently. Molecules that are tested in phase 1 and 2 clinical trials include endostatin, angiostatin, TNP-470, thalidomide, anti-VEGF antibodies, PTK787, SU-5416, SU-6668 and others. […] Mice that received endostatin for several days had lower diffusion of Evans blue from the skin capillaries in response to intradermal VEGF and PAF injection compared with normal mice. The existing test of histamine-induced wheal and flare in skin can be used in order to test bioactivity of endostatin and other antiangiogenic factors. Intradermal injection of histamine leads to the formation of local adema ([…]) due to blood vessel hyperpermiability. […] This test will serve as an early surrogate marker for the bioactivity of endostatin and other antiangiogenic factors and help to determine the treatment's efficiency in individual patients.

lung tissue = assay: Swelling of lung tissue induced by micro-encapsulated VEGF-producing cells; format: in vivo, Mice; conditions: VEGF producing cells together with endostatin producing cells, 0.5x10^6 encapsulated cells of each
From the text: Dilation of the lung tissue may result in lung dysfunction and development of pulmonary hypertension. Mice injected with micro-encapsulated cells producing VEGF (approximately 0.5×10^6 cells per mouse) developed thickened lung parenchyma 5 days after injection. At a higher magnification we observed generation of several cell layers between the alveoli compared with one layer of cells in mice injected with micro-encapsulated control cells or with micro-encapsulated cells producing endostatin (Endost). […] Moreover, treatment with endostatin reduced the number of cell layers between the alveoli and the lungs of mice that were treated with endostatin appeared similar to control mice. Therefore, endostatin appears to block the swelling of lung tissue and may be used for treatment of pulmonary hypertension.

[7] = tested on: skin capillary permeability; assay: Evans Blue skin permeability assay, intradermal VEGF, endostatin-treated mice; format: in vivo; conditions: FVB/NJ mice, i.p. for 4 days
Protocol: as §1

[8] = tested on: Bovine capillary endothelial cells (BCE); assay: In vitro diffusion of FITC-dextran through endothelial cell monolayer (Transwells); format: cell-based
Protocol: The effects of the antiangiogenic factor (endostatin) on skin vessel permeability in vivo were tested in an in vitro diffusion model designed to mimic blood vessel permeability. Bovine capillary endothelial cells (BCE) were seeded in collagen coated inserts of “Transwells” and grown to confluence. The antiangiogenic factor was added every 24 hours. Four days later the inserts were washed with BCE culture medium and the following tracers and permeability regulators were added to the inserts. Half of the inserts received 5 mg/ml FITC-labeled dextran 10 kDa and the other half received 5 mg/ml FITC-labeled dextran 70 kDa. In addition, some inserts received 50 ng/ml VEGF165 or 100 nM PAF. Control inserts received BCE culture medium with fluorescent tracers only. The fluorescence in the lower wells was measured after 10, 20, 30, 45 and 60 minutes by transferring the inserts into new wells.
In order to follow the kinetic of the diffusion process, the flow of the tracer was calculated as fluorescent counts per minute (FIGS. 5 and 6). […] In contrast, the flow in control cells was constant and was lower than that observed in PAF and VEGF165-treated cells.

[9] = tested on: Bovine capillary endothelial cells (BCE); assay: Immunostaining of tight junction proteins in BCE, endostatin; format: cell-based
Protocol: Bovine capillary endothelial cells (BCE) were cultured in the presence of 0.2, 0.5 and 2 μg/ml human endostatin for three days. The cells were fixed and immunostained with anti-β-catenin, occludin, and ZO-1 antibodies (Zymed Laboratories, CA). The staining was developed using FITC-conjugated secondary antibodies and visualized under fluorescent microscopy. Immunostaining for β-catenin marked the cell borders and was more intense when two cells contacted each other. […] There was no difference in β-catenin staining between 0.5 and 2.0 μg/ml endostatin. […] Similar results were obtained with ZO-1 immunostaining. […] This is the first documentation of the effects of endostatin on tight junctions that may explain, in part, the mechanism of its antiangiogenic activities. Similar experiments were performed in which BCE were incubated in the presence and absence of 0.5 μg/ml endostatin for 3 days followed by stimulation with PAF for 20 minutes. The cells were fixed and immunostained with anti-α-catenin, occludin, and ZO-1 antibodies (Zymed Laboratories, CA), as described above.

angiostatin
decrease of PAF-induced permeability (skin vessel permeability [1]; PAF intradermal): 37% | inhibition of Evan's blue dye extravasation from VPF/VEGF injection sites (skin vessel permeability [1]; VPF/VEGF intradermal): 40% | decrease of histamine-induced permeability (skin vessel permeability [1]; histamine intradermal): 51% | Evan's blue extravasation into U87 glioblastomas [2]: did not inhibit

C[C@@H](N)[C@H]1CC[C@H](C(=O)Nc2ccncc2)CC1 [Y27632]
CNF-1-induced Evan's blue-albumin extravasation (skin vessel permeability [1]; CNF-1 intradermal): inhibited | effect on VPF/VEGF-induced vessel permeability (skin vessel permeability [1]; VPF/VEGF intradermal): inhibited

O=C1CCC(N2C(=O)c3ccccc3C2=O)C(=O)N1 (stereo not shown) [Thalidomide]
effect on VEGF induced vessel permeability [3]: no effect | effect on VPF/VEGF-induced vessel permeability (skin vessel permeability [1]; VPF/VEGF intradermal): no significant effect

endostatin
duration of treatment required to reduce skin vessel permeability (skin vessel permeability [4]; SCID mice, intraperitoneal Alzet pump): at least 3 days | blood vessel permeability in response to PAF injection vs saline treated mice (skin vessel permeability [4]; day two after pump implantation): no significant difference | PAF-induced vascular permeability [5]: repressed | zone of edema after intradermal histamine [6]: reduced zone of edema | lung tissue appearance (cell layers, extracellular matrix) (lung tissue): fewer cell layers and no accumulation of extracellular matrix | VEGF-induced hyperpermeability (Evans Blue extravasation) ([7]; intradermal VEGF165/VEGF121): minor induction of hyperpermeability | Evans Blue dye leakage from skin capillaries ([7]; vs control mice): overall lower dye leakage than the control | flow of the tracer (fluorescent counts per minute) ([8]; 10 kDa and 70 kDa dextrans): significant reduced flow | sum of fluorescent count over 60 minutes ([8]; BCE monolayer pre-treated 4 days, FITC-dextran 10 kDa and 70 kDa, vs control, VEGF165- and PAF-treated cells): significantly lower fluorescent counts | cell boundary β-catenin staining ([9]; 0.2 μg/ml, three days): intensified | PAF reduction of staining intensity of anti-α-catenin, occludin and ZO-1 ([9]; 0.5 μg/ml for 3 days, then PAF for 20 minutes): not in endostatin-treated cells | cell boundary β-catenin staining ([9]; 0.5 μg/ml, three days): further intensified | ZO-1 immunostaining ([9]; 0.2-2.0 μg/ml, three days): Cells boundaries were only visible | occludin immunostaining ([9]; 0.5 and 2.0 μg/ml, three days): cell boundaries were observed
